# Test results published in patent publication US4959353A, “Promotion of corneal stroma wound healing with human epidermal growth factor prepared from recombinant DNA” (University of Louisville Foundation, priority 1987, dated 1990).
# Key:
# interscapular incision [1] = test: Tensile strength of incisions treated with a single dose of EGF-saline; format: in vivo, rats; settings: after 10 days; single dose in saline
# Experimental: Adult male Sprague Dawley rats weighing 230-250 g were anesthetized and a single interscapular incision 5 cm long penetrating the panniculus carnosus was created in the dorsal midline. Equal amounts of hEGF (10 μg) formulated in one of the four formulations were placed in the base of individual incision tracts, and then sutured. At daily intervals, rats were sacrificed by carbon dioxide inhalation and incisions with 3 mm of surrounding nonwounded skin were excised to the underlying muscle. Total amounts of hEGF present in incision areas were calculated by measuring residual ^125 I-hEGF present in samples using a Beckman 4000 gamma scintillation counter, and were expressed as percentages of original hEGF applied to incisions. At each time point, the average amount of hEGF retained in the incision for each formulation was calculated from the values from three rats. From each incision, three test strips approximately 5 mm wide were cut perpendicular to the original incision, one from the middle and two from each end. Measurements of incision strength were conducted using a Unite-O-Matic FM-20 tensiometer instrument. For each formulation, the mean tensile strength was calculated from the mean value of all incision measurements in the group. […]
# interscapular incision [2] = test: Tensile strength of incisions treated with repeated doses of EGF-saline; format: in vivo, rats
# Experimental: Interscapular incisions were created as above on the backs of 22 rats and a perforated catheter was placed in the base of the incision and brought out through a separate stab incision at the base of the neck. Incisions of half the rats were treated three times a day for five days by rapidly injecting 200 μl of PBS containing 50 μg of hEGF, while the control rats received injections of PBS. Seven and 14 days after surgery, rats were sacrificed by carbon dioxide asphixiation, incisions and surrounding tissue were removed as above. Three strips were taken from tensile strength measurement from each incision.
# An interscapular incision was made on the back of each rat and a perforated catheter was placed in the base of the incision and brought out through a separate stab wound and the incision was sutured. Incisions were treated three times a day for five days by injecting 200 μl of saline alone or containing 50 μg EGF. After seven and fourteen days, rats were sacrificed and triplicate tensile strength measurements were determined for each rat. Values are mean and standard deviation and n is the number of tensile strength measurements.
# [3] = tested on: capillary growth in rabbit cornea; test: Rabbit cornea angiogenesis assay with hEGF EVA pellets; format: in vivo, rabbits; design: key to Angiogenic Response: 4+: profuse capillary growth; 3+: extensive capillary growth; 2+: moderate capillary growth; 1+: very little capillary growth; 0: no capillary growth
# Experimental: hEGF was dilated in sterile PBS to concentrations of 500, 100, 20, 4 and 0.8 μg/ml and lyophilized. Ethylene-vinyl acetate (EVA) copolymer beads were mixed with methylene chloride to produce a 10% w/v casting solution. Approximately 0.1 ml of casting solution was added to the lyophilized hEGF and mixed. […]
# The pellets were implanted into intrasomal corneal pockets located 1.5 mm from the limbus in the eyes of pigmented adult rabbits. […]
# blister wounds = settings: mEGF in saline solution once daily until healed; human subjects; cited from earlier work
# open wounds = settings: topical application; mice; cited from earlier work
substance,measurement,setting,value
hEGF: human epidermal growth factor polypeptide expressed from plasmid pYαEGF-23 in yeast strain AB103 and purified,tensile strength vs PBS-treated or simply sutured incisions,interscapular incision [1],not significantly stronger
same,average increase in strength over saline treated incisions,interscapular incision [2]; 7 days after surgery,35%
same,microscopic appearance of incision tract,interscapular incision [2]; 7 days after surgery,very narrow with closely opposed edges
same,tensile strength vs saline-treated incisions,interscapular incision [2]; fourteen days after surgery,not different
same,Angiogenic Response,"[3]; 0.04 mg/pellet (so in the source), EVA pellet",1+
same,Angiogenic Response,"[3]; 0.18 mg/pellet (so in the source), EVA pellet",1+
same,Angiogenic Response,"[3]; 1.1 mg/pellet (so in the source), EVA pellet",2+
same,Angiogenic Response,"[3]; 6.2 mg/pellet (so in the source), EVA pellet",3+
same,Angiogenic Response,"[3]; 25 mg/pellet (so in the source), EVA pellet in rabbit corneal pocket",4+
same,angiogenesis in rabbit cornea assay,[3]; sustained release from EVA pellets,induced angiogenesis
"mEGF: epidermal growth factor obtained from mouse salivary glands (NSYPGCPSSYDGYCLNGGVCMHIESLDSYTCNCVIGYSGDRCQTRDLRWWELR; not fully specified; Epidermal growth factor; UniProt P01132 977-1029, looked up)",acceleration in the growth of the epidermal layer,blister wounds,No acceleration
same,healing of open wounds,open wounds,promote healing in various degrees
